Experimental data from US9085608B2, “Treatment of biofilms” (LYTIX BIOPHARMA AS, priority 2008, dated 2015).
Values after ≈ are worked out from the molar mass of the structure shown. “Also recorded” adds a separate entry of the source. Residues, ends and D or L forms follow the SMILES beside them. *: point of attachment. NHPhenethyl = c1ccc(CCN*)cc1

Columns and labels:
[1] = system: 42-77 S. epidermidis; assay type: cell-based; conditions: planctonic
Excerpt: (§1) Minimum Inhibitory Concentration (MIC) on Planctonic Bacteria

[2] = system: 51-03 S. haemolyticus; assay type: cell-based; conditions: planctonic
Excerpt: as §1

[3] = system: 51-07 S. haemolyticus; assay type: cell-based; conditions: planctonic
Excerpt: as §1

[4] = system: 8-16 S. epidermidis; assay type: cell-based; conditions: planctonic
Excerpt: as §1

[5] = system: PIA 9 S. aureus; assay type: cell-based; conditions: planctonic
Excerpt: as §1

[6] = system: PIA 90 S. aureus; assay type: cell-based; conditions: planctonic
Excerpt: as §1

[7] = system: 42-77 S. epidermidis biofilm; experiment: MBIC, biofilm survival rate by Alamar blue, Example 3; assay type: cell-based; conditions: 24 h
Experimental: (§2) Biofilm formation was induced in 96-well flat bottom microtitre plates (Nunclon Surface, NUNC). First, overnight cultures were diluted 1:100 in MHIIB (S. epidermidis and S. haemolyticus) or tryptic soy broth (TSB) with 5% glucose and 5% NaCl (S. aureus). 200 ml of this bacterial suspension (10^7 cfu/ml) was added to each well and incubated for 24 h at 37° C. After 24 h the wells were carefully washed twice with phosphate-buffered saline (PBS) to remove planktonic bacteria. The washing procedure was carefully evaluated by measuring metabolic activity of the PBS with the Alamar blue method, described in detail below.
(§3) The washed biofilms were subjected to treatment with the Compounds at different concentrations.
(§4) Trifluoroacetate salts of the compounds were dissolved in sterile water and diluted to 5 mg/L, 50 mg/L and 500 mg/L in MHIIB. […] of the Compounds, in different concentrations, were added to each well and incubated for 24 h at 37° C. Positive controls were untreated biofilms only added 200 MHIIB. Negative controls were only 200 μl MHIIB, with no bacteria added.
(§5) The metabolic activity of the biofilm was quantified with a slightly modified method previously described by Pettit et al. Antimicrob. Agents Chemother. 2005; 49: 2612-7. Briefly, after the 24 h incubation with antimicrobial agents the wells were again washed twice with PBS and then added […] MHIIB with 5% Alamar blue (AB; Biosource, Camarillo, Calif., USA). AB is a redox indicator which both fluoresces and changes colour in response to chemical reduction. The extent of reduction is a reflection of bacterial cell viability. After 1 h incubation at 37° C., absorbance was recorded at 570 and 600 nm using Versamax tuneable microplate reader (Molecular Devices, Sunnyvale, Calif., USA). All assays were performed 3 times with 8 parallels. The highest and lowest value of each run was excluded from the analyses, and the remaining 18 values were averaged.

[8] = system: 51-03 S. haemolyticus biofilm; experiment: as above; assay type: cell-based; conditions: 24 h
Experimental: as §2, §3, §4, §5

[9] = system: 51-07 S. haemolyticus biofilm; experiment: as above; assay type: cell-based; conditions: 24 h
Experimental: as §2, §3, §4, §5

[10] = system: 8-16 S. epidermidis biofilm; experiment: as above; assay type: cell-based; conditions: 24 h
Experimental: as §2, §3, §4, §5

[11] = system: PIA 9 S. aureus biofilm; experiment: as above; assay type: cell-based; conditions: 24 h
Experimental: as §2, §3, §4, §5

[12] = system: PIA 90 S. aureus biofilm; experiment: as above; assay type: cell-based; conditions: 24 h
Experimental: as §2, §3, §4, §5

[13] = system: Staphylococcus aureus PIA 9; experiment: microbe, parasite or virus in culture; conditions: Staphylococcus aureus, PIA9
Experimental: (§6) Bacteria were grown overnight at 37° C. in cation adjusted Mueller-Hinton II Broth (MHIIB).
(§7) We determined the MICs of oxacillin, gentamicin, tetracycline, vancomycin and linezolid using E-test (AB Biodisk, Solna, Sweden) and MICs of rifampicin using broth microdilution assay. Breakpoints were interpreted according to EUCAST criteria. […] All 3 SAMPs are tripeptides with two arginine residues providing their cationic moieties (FIG. 1). The lipophilic bulk is provided by a modified tryptophane derivate. […] The molecular weights of the SAMPs are in the range of 700-800 Dalton.

[14] = system: Staphylococcus aureus PIA90; experiment: microbe, parasite or virus in culture; conditions: Staphylococcus aureus, PIA90
Experimental: as §6, §7

[15] = system: Staphylococcus epidermidis RP62A ATCC 35984; experiment: microbe, parasite or virus in culture; conditions: Staphylococcus epidermidis, ATCC35984
Experimental: as §6, §7

[16] = system: Staphylococcus epidermidis TUH 08-16; experiment: microbe, parasite or virus in culture; conditions: Staphylococcus epidermidis, TUH0816
Experimental: as §6, §7

[17] = system: Staphylococcus haemolyticus TUH 51-03; experiment: microbe, parasite or virus in culture; conditions: Staphylococcus haemolyticus, TUH5103
Experimental: as §6, §7

[18] = system: Staphylococcus haemolyticus TUH 51-07; experiment: microbe, parasite or virus in culture; conditions: Staphylococcus haemolyticus, TUH5107
Experimental: as §6, §7

[19] = system: six staphylococcal strains (2 S. epidermidis, 2 S. haemolyticus and 2 S. aureus); experiment: Susceptibility testing under planktonic growth condition, EUCAST breakpoints; assay type: cell-based; conditions: all 6 strains; EUCAST criteria
Experimental: The six staphylococcal strains (2 S. epidermidis, 2 S. haemolyticus and 2 S. aureus) used in this study were selected based on their previously known biofilm forming capacity (Table 1).
as §6
We determined the MICs of oxacillin, gentamicin, tetracycline, vancomycin and linezolid using E-test (AB Biodisk, Solna, Sweden) and MICs of rifampicin using broth microdilution assay. Breakpoints were interpreted according to EUCAST criteria. We selected 3 different SAMPs (Compounds A, B and C; Lytix Biopharma, Tromsø, Norway—see FIG. 1) based on previously known antimicrobial activities, and determined their exact MICs with broth microdilution assay. All 3 SAMPs are tripeptides with two arginine residues providing their cationic moieties (FIG. 1). The lipophilic bulk is provided by a modified tryptophane derivate. The difference between the compounds is the size of the C-terminal modification; Compound A has the smallest and Compound B has the largest C-terminal modification (FIG. 1). The molecular weights of the SAMPs are in the range of 700-800 Dalton.

[20] = system: 24 h old biofilm of 6 different staphylococcal strains; experiment: Biofilm metabolic activity, Alamar blue reduction; assay type: cell-based, S. epidermidis, S. haemolyticus, S. aureus; conditions: 50 mg/L; mature biofilms from 4 out of the 6 strains tested
Experimental: Biofilm formation was induced in 96-well flat bottom microtitre plates (Nunclon Surface, NUNC, Roskilde, Denmark). First, overnight cultures were diluted 1:100 in MHIIB (S. epidermidis and S. haemolyticus) or tryptic soy broth (TSB) with 5% glucose and 5% NaCl (S. aureus). Two hundred of this bacterial suspension (10^7 cfu/ml) was added to each well and incubated for 24 h at 37° C. After 24 h the wells were carefully washed twice with phosphate-buffered saline (PBS) to remove planktonic bacteria. The washing procedure was evaluated by measuring metabolic activity of the PBS with the Alamar blue method, described in detail below.
The washed biofilms were subjected to treatment with antibiotics or SAMPs at different concentrations. Stock solutions of the tetracycline (Sigma Aldrich), vancomycin (Alpharma) and linezolid (Pfizer) were diluted in MHIIB to 5 mg/L, 50 mg/L and 500 mg/L, and rifampicin (Sigma Aldrich) was diluted in MHIIB to 0.01 mg/L, 0.1 mg/L and 1 mg/L. Trifluoroacetate salts of the SAMPs were dissolved in sterile water and diluted to 5 mg/L, 50 mg/L and 500 mg/L in MHIIB. 200 μl of antibiotics or SAMPs, in different concentrations, were added to each well and incubated for 24 h at 37° C. Positive controls were untreated biofilms only added 200 μl MHIIB. Negative controls were only 200 μl MHIIB, with no bacteria added.
We quantified the metabolic activity of biofilm with a slightly modified method previously described by Pettit et al. in Antimicrob. […] Briefly, the wells were washed twice with PBS. We then added 250 μl MHIIB with 5% Alamar blue (AB; Invitrogen, Carlsbad, Calif., USA) to each well. AB is a redox indicator which both fluoresces and changes colour in response to chemical reduction. The extent of reduction is a reflection of bacterial cell viability. After 1 h incubation at 37° C., absorbance was recorded at 570 and 600 nm using Versamax tuneable microplate reader (Molecular Devices, Sunnyvale, Calif., USA). […] The highest and lowest value of each run was excluded from the analyses, and the remaining 18 values were averaged.
We defined two levels of antimicrobial suppression of metabolic activity.

[21] = system: S. aureus PIA9 biofilm; experiment: Biofilm metabolic activity, Alamar blue reduction; assay type: cell-based, Staphylococcus aureus
Experimental: as §2, with “NUNC, Roskilde, Denmark).” for “NUNC).”, “Two hundred” for “200 ml”, “was” for “was carefully”, “below. […]” for “below.”
We quantified the metabolic activity of biofilm with a slightly modified method previously described by Pettit et al. in Antimicrob. […] After 1 h incubation at 37° C., absorbance was recorded at 570 and 600 nm using Versamax tuneable microplate reader (Molecular Devices, Sunnyvale, Calif., USA). […]
The percent reduction of AB was calculated according to the manufacturer's formula (Invitrogen, Carlsbad, USA). We calculated mean and standard deviations (SD) of all repeated measurements. Pearson's two-tailed correlation between the AB method and the CV method (FIG. 2) was calculated on averaged data from all 6 staphylococcal strains. […]

[22] = system: S. haemolyticus TUH 51-07 biofilm; experiment: Biofilm imaging, LIVE/DEAD staining and confocal laser scanning microscopy; assay type: cell-based, Staphylococcus haemolyticus; conditions: 50 mg/L, 24 h treatment
Experimental: One ml aliquots of MHIIB-diluted overnight culture was used to grow S. haemolyticus TUH 51-07 biofilm on plastic coverslides (Thermanox, cellculture treated on one side, NUNC, Roskilde, Denmark) in 24-well dishes (Falcon 3047, Becton Dickinson, NJ, USA) for 24 h. The coverslides were then washed carefully with PBS, moved to a new plate and treated for 24 h with tetracycline 50 mg/L and 500 mg/L, vancomycin 50 mg/L and 500 mg/L, or Compound A 50 mg/L and 500 mg/L. The coverslides were washed again with […] and stained with a LIVE/DEAD kit (Invitrogen Molecular Probes, Eugene, Oreg., USA) following the manufacturer's instructions. This stain contains SYTO 9 (green fluorescent) and propidium iodide (PI; red fluorescent), both binding to DNA. When used alone, the SYTO 9 generally stains all bacteria in a population; both those with intact and those with damaged membranes. In contrast, PI penetrates only bacteria with damaged membranes, causing a reduction in the SYTO 9 stain green fluorescence when both dyes are present. We examined treated and untreated biofilms with a Leica TCS SP5 (Leica Microsystems CMS Gmbh, Mannheim, Germany) confocal laser scanning microscope (CLSM). Images were obtained using a 63×1.2 NA HCX PL APO water immersion lens. For detection of SYTO9 (green channel), we used the 488 nm line of the argon laser and a detection bandwidth of 495-515 nm. For PI detection (red channel), we used the 561 nm line and a detection bandwidth of 615-660 nm. The two fluorescent-signals were collected sequentially at 400 Hz. Image analyses and export was performed in Leica LAS AF version 1.8.2.

For `N=C(N)NCCC[C@H](NC(=O)[C@H](Cc1c[nH]c2ccccc12)NC(=O)[C@H](Cc1c[nH]c2ccccc12)NC(=O)[C@H](CCCNC(=N)N)NC(=O)[C@@H](N)Cc1c[nH]c2ccccc12)C(=O)NCCc1ccccc1` [ME 172, W-R-W-W-R-NH-CH2CH2Ph] (H-WRWWR-NHPhenethyl), the MIC [1] was 16 µg/mL (≈ 16.1 µM), the MIC [2] was 8 µg/mL (≈ 8.06 µM) and the MIC [3] was 8 µg/mL (≈ 8.06 µM). The MIC [4] was 16 µg/mL (≈ 16.1 µM), the MIC [5] was 16 µg/mL (≈ 16.1 µM) and the MIC [6] was 32 µg/mL (≈ 32.3 µM). The “MBIC measured as survival rate” value ([7]; 5 μg/ml) was 100%, the “MBIC measured as survival rate” value ([7]; 50 μg/ml) was 85% and the “MBIC measured as survival rate” value ([7]; 500 μg/ml) was 10%. The “MBIC measured as survival rate” value ([8]; 5 μg/ml) was 100%, the “MBIC measured as survival rate” value ([8]; 50 μg/ml) was 6% and the “MBIC measured as survival rate” value ([8]; 500 μg/ml) was 8%. The “MBIC measured as survival rate” value ([9]; 5 μg/ml) was 100%, the “MBIC measured as survival rate” value ([9]; 50 μg/ml) was 41% and the “MBIC measured as survival rate” value ([9]; 500 μg/ml) was 12%. The “MBIC measured as survival rate” value ([10]; 5 μg/ml) was 100%, the “MBIC measured as survival rate” value ([10]; 50 μg/ml) was 80% and the “MBIC measured as survival rate” value ([10]; 500 μg/ml) was 20%. For the same compound, the “MBIC measured as survival rate” value ([11]; 5 μg/ml) was 100%, the “MBIC measured as survival rate” value ([11]; 50 μg/ml) was 100% and the “MBIC measured as survival rate” value ([11]; 500 μg/ml) was 18%. The “MBIC measured as survival rate” value ([12]; 5 μg/ml) was 100%, the “MBIC measured as survival rate” value ([12]; 50 μg/ml) was 55% and the “MBIC measured as survival rate” value ([12]; 500 μg/ml) was 10%.

`CN[C@H](CC(C)C)C(=O)N[C@H]1C(=O)N[C@@H](CC(N)=O)C(=O)N[C@H]2C(=O)N[C@H]3C(=O)N[C@H](C(=O)N[C@H](C(=O)O)c4cc(O)cc(O)c4-c4cc3ccc4O)[C@H](O)c3ccc(c(Cl)c3)Oc3cc2cc(c3O[C@@H]2O[C@H](CO)[C@@H](O)[C@H](O)[C@H]2O[C@H]2C[C@](C)(N)[C@H](O)[C@H](C)O2)Oc2ccc(cc2Cl)[C@H]1O` [VAN, vancomycin] was tested, and the MIC [13] was 2 µg/mL (≈ 1.38 µM), the MIC [14] was 2 µg/mL (≈ 1.38 µM) and the MIC [15] was 4 µg/mL (≈ 2.76 µM). For the same compound, the MIC [16] was 2 µg/mL (≈ 1.38 µM), the MIC [17] was 4 µg/mL (≈ 2.76 µM) and the MIC [18] was 2 µg/mL (≈ 1.38 µM). The “susceptibility under planktonic growth” value [19] was “susceptible; also recorded: sensitive”, the “suppression of metabolic activity (AB reduction)” value [20] was “strong suppression (A strong suppression was obtained if an agent, after adjusting for the negative control, at a certain concentration caused 75% reduction of AB compared to positive control)” and the resistance of biofilm [21] was “completely resistant”. For the same compound, the “LIVE/DEAD staining of biofilm cells (CLSM)” value [22] was “predominantly green cells; also recorded: most bacteria were not killed”.
